Here are results for three compounds from paper PMC11428593 (Antibiotics, 2024).

Values after ≈ are worked out from the molar mass of the structure shown. Values joined by “and” are separate entries in the source; they are usually repeats but may differ in a detail not shown here. Equal entries are not always repeated. Where two headings read alike, the source gives them in different places.

A word on the MIC: it is the lowest concentration that inhibits growth of the organism. For orientation: MBC means the smallest concentration meeting the test's criterion for killing. A low value points to greater bactericidal potency. As usually defined, the IC50 is the concentration needed to halve the response being measured.

One assay deals with S. aureus ATCC 25923. As to the kind of experiment: MIC by broth microdilution (CLSI). In kind it is cell-based. The following applies: Staphylococcus aureus, ATCC25923, MHB, 37 °C, 16 h. The text has this:
(§1) To assess the impact of the nitrogen position in our newly synthesized anaephene derivates, we analyzed their antimicrobial activities against various S. aureus strains, including ATCC 25,923 and the two methicillin-resistant S. aureus (MRSA) strains ATCC 33,591 and ATCC BAA-44. […] We determined the minimum inhibitory concentrations (MIC) of each of our compounds against the different bacterial strains by broth microdilution following the CLSI guidelines. As expected, all five compounds tested were completely ineffective against the Gram-negative P. aeruginosa strain ATCC 27,853 (Table 1).
(§2) The MIC values of the alkyl pyridinol derivatives against the S. aureus strain ATCC 25923, MRSA strains ATCC 33591, ATCC BAA-44, and USA300LAC, as well as the P. aeruginosa strain ATCC 27853, were determined by following the CLSI guidelines for the broth microdilution antibiotic sensitivity testing protocol. In brief, the overnight cultures were diluted into Mueller Hinton Broth (MHB) to a final inoculum concentration of 5 × 10^5 CFU/mL (O.D600nm = 0.00001) and dispensed into a 96-well polystyrene plate (Alkali Scientific, Fort Lauderdale, FL, USA). Alkyl pyridine compounds were diluted into inoculated MHB to the indicated concentrations from stock solutions that would allow for DMSO concentrations below 5%, resulting in a total volume of 200 μL per well. The plates were subsequently incubated at 37 °C for 16 h at 300 rpm. The MIC values, which are defined as the lowest compound concentration that inhibited growth, were determined from three biological replicates.
On the technique in general: In broth dilution the organism is exposed to a series of concentrations in liquid medium.

The subject of the next assay is MRSA ATCC 33591. As to the kind of experiment: MIC by broth microdilution (CLSI). Type of assay: cell-based. Particulars: Staphylococcus aureus, MHB, 37 °C, 16 h.
Source text: as §1, §2

A further assay relates to MRSA ATCC BAA-44. As to the kind of experiment: MIC by broth microdilution (CLSI). Type of assay: cell-based. The following applies: Staphylococcus aureus, MHB, 37 °C, 16 h.
Source text: as §1, §2

In a further assay the test system is P. aeruginosa ATCC 27853. As to the kind of experiment: MIC by broth microdilution (CLSI). Type of assay: cell-based. Particulars: Pseudomonas aeruginosa, ATCC27853, MHB, 37 °C, 16 h.
Source text: as §1, §2

Assay [1] deals with MRSA USA300LAC. As to the kind of experiment: Minimal bactericidal concentration (MBC). Type of assay: cell-based, Staphylococcus aureus. The following applies: for bactericidal or bacteriostatic effect: USA300LAC, in words. The protocol:
In brief, 10 µL of each culture was serially diluted and plated onto prewarmed LB agar and incubated overnight at 37 °C under static conditions to observe the colony-forming units (CFUs). The concentration at which no CFUs were observed was recorded as the MBC.

Another assay relates to USA300LAC cells. As to the kind of experiment: Propidium iodide uptake assay (membrane damage). In kind it is cell-based, Staphylococcus aureus. The following applies: up to 2× MIC, 1 h exposure. An excerpt: The alkyl pyridinol derivates synthesized in this study are characterized by high lipophilicity. To determine whether and to what extent these compounds incorporate into and disrupt the phospholipid bilayer of the S. aureus cell envelope, we performed a propidium iodide (PI) uptake assay. Given the membrane-impermeable nature of PI, the fluorophore can be used to assess membrane disruption in cells by measuring its non-specific interaction with DNA, which leads to enhanced fluorescence. […] The extent of membrane damage caused by JC-01-074 occurred in a dose-dependent manner.
Figure 4 JC-01-074 causes significant membrane damage in S. aureus. Membrane damage was evaluated via propidium iodide (PI) staining. […] Treatment of USA300LAC with 2.5% DMSO, 4 µg/mL vancomycin, and 0.25% SDS were included as negative and positive controls, respectively. Cells were collected, washed, resuspended in PBS, and stained with 1 µM PI. PI fluorescence was measured (exc./em. wavelengths: 535/615 nm) and normalized to OD600nm. One-way ANOVA, Dunnett’s multiple-comparison test (* p < 0.05, **** p < 0.0001); (n = 3, ±S.D.).
The plasma membrane integrity was determined using the Propidium Iodide Uptake assay, as previously described. Briefly, the overnight cultures of USA300LAC were diluted into fresh TSB media, grown to an early log phase at 37 °C and 300 rpm, and treated with either DMSO, an alkyl pyridinol derivate, vancomycin, or SDS at the indicated concentrations for 1 h. Following two washing steps, the cells were then resuspended in phosphate-buffered saline (PBS), pH = 7.4, and subsequently stained with 1 µM propidium iodide (PI). The PI fluorescence intensity was determined at an excitation wavelength of 535 nm and an emission wavelength of 615 nm.

In assay [2] the test system is 3T3 mouse embryonic fibroblast cells. As to the kind of experiment: MTT cytotoxicity assay. In kind it is cell-based. The following applies: 3T3 cells; for IC50: Mus musculus, NIH3T3, 24 h. The protocol: To gauge the potential for toxicity of the new alkyl pyridinol derivates, we tested their cytotoxicity by examining the metabolic activity of 3T3 mouse embryonic fibroblast cells using the tetrazolium dye 3-(4,5-dimethylthiazol-2-yl)-2,5-diphenyltetrazolium bromide (MTT), as has been done before. The dye is reduced by NAD(P)H-dependent cellular oxidoreductases, resulting in the formation of the insoluble formazan with its purple color, which can be quantified. 3T3 cells were treated with different concentrations of the alkyl pyridinol compounds for 24 h, and the absorbance of the MTT-treated cell culture supernatant was measured at 540 nm. Absorbances were plotted against concentrations of the compound added (Supplementary Figure S2), and IC50, the concentration of a drug required for 50% metabolic inhibition, was calculated for each compound. […] However, the concentrations at which these compounds compromise 3T3 mouse embryonic fibroblast cells are well above their reported MICs (Table 2).
3T3 cells (male mouse embryonic fibroblast Flp-In cells, Thermo Fisher, Waltham, MA, USA) were cultured in D-MEM (Corning, Corning, NY, USA) supplemented with 10% Fetal Clone III (Cytiva Hyclone, Bengaluru, India) and L-Glutamine (Alfa Aesar, Haverhill, MA, USA) at 37 °C and 5% CO2. To determine the compound’s toxicity, 3T3 cells were seeded at a density of 10,000 cells/well into 96-well plates (Fisherbrand, Waltham, MA, USA) and cultured as described above. After 16 h, the culture medium was extracted and replaced by supplemented D-MEM without phenol red (Corning, Glendale, AZ, USA) containing individual compounds in the indicated concentrations. Furthermore, 1% sodium dodecyl sulfate (SDS) and 2% dimethyl sulfoxide (DMSO), equivalent to the volume of the DMSO in the highest compound concentration, were used as the cell death and vehicle control, respectively. Moreover, 16 h after compound treatment, the culture medium was extracted again and replaced by fresh supplemented D-MEM without phenol red. Subsequently, 10 µL of 5 mg/mL MTT reagent (Alfa Aesar, Haverhill, MA, USA), dissolved in DMSO, was added to each well, and the cells were incubated for 2 h at 37 °C and 5% CO2. Next, 85 µL of the culture supernatant was removed from each well, mixed with 50 µL of DMSO, and incubated in an optical grade 96-well plate (Fisherbrand, Waltham, MA, USA) in a shaking incubator at 37 °C and 250 rpm. The absorbance of the MTT-treated cell culture supernatant was measured at 540 nm in an ELx808 plate reader (Biotek, Winooski, VT, USA).

Assay [3] deals with MRSA USA300LAC. As to the kind of experiment: MIC by broth microdilution (CLSI). In kind it is cell-based, Staphylococcus aureus. Particulars: Staphylococcus aureus; MRSA USA300LAC; MHB, 37 °C, 16 h; read-out: MIC. The method, then: as §2
In another assay the test system is S. aureus/MRSA strains. As to the kind of experiment: MIC by broth microdilution, S. aureus/MRSA strains. In kind it is cell-based, Staphylococcus aureus. Particulars: for MIC: Staphylococcus aureus, MRSA, S. aureus/MRSA strains tested, strain not singled out, read-out: MIC.
Source text: as §1, §2

[4] abbreviates: 24 h treatment, mean ± S.D., read-out: IC50.

Consider `CCCCCCCCCC#Cc1cc(O)cc(Br)n1` [EA-02-009], for which the MIC in the assay with S. aureus ATCC 25923 was 1 µg/mL (≈ 3.08 µM); in the assay with MRSA ATCC 33591, 0.5 µg/mL (≈ 1.54 µM); against MRSA ATCC BAA-44, 1 µg/mL (≈ 3.08 µM); against P. aeruginosa ATCC 27853, above 128 µg/mL; in the assay on MRSA USA300LAC [3], 32 µg/mL (≈ 98.7 µM); in the assay with S. aureus/MRSA strains, 0.5 to 1 µg/mL (≈ 1.54 to 3.08 µM). The MBC in the assay on MRSA USA300LAC [1] (Staphylococcus aureus, MRSA USA300LAC, concentration at which no CFUs were observed) was above 128 µg/mL. Besides, the “bactericidal or bacteriostatic effect” value is given as “bacteriostatic” in the assay with MRSA USA300LAC [1] and “no significant killing” with MRSA USA300LAC [1] (listed as EA-002-009). The “changes in PI intensity” value with USA300LAC cells is given as “minimal changes”. The “IC50 of single biological replicates (Figure S2)” value in assay [2] (24 hours, one value per biological replicate, listed as EA-02-09) is 16.1 µg/ml and 17.4 µg/ml and 31.4 µg/ml and 73.2 µg/ml. The IC50 in [2] (setting [4]) came to 107 ± 82.3 µM.

In the case of `CCCCCCCCCC#Cc1cc(O)ccn1` [EA-02-011], the MIC in the assay with S. aureus ATCC 25923 was 32 µg/mL (≈ 130 µM); in the assay on MRSA ATCC 33591 it was 32 µg/mL (≈ 130 µM); in the assay on MRSA ATCC BAA-44 it was 32 µg/mL (≈ 130 µM); against P. aeruginosa ATCC 27853 it was above 128 µg/mL; in the assay with S. aureus/MRSA strains, 32 µg/mL (≈ 130 µM). For the same compound, the “IC50 of single biological replicates (Figure S2)” value in [2] (24 hours, one value per biological replicate, listed as EA-02-11) is 10.9 µg/ml and 8.6 µg/ml. Also, the IC50 is 12.7 µg/mL in assay [2] (24 hours, one value per biological replicate, read-out: IC50 of single biological replicates (Figure S2)); 43.6 µM and 10.7 µg/mL in assay [2] (setting [4]).

Take `CCCCCCCCCC#Cc1cc(O)cc(C#CCCCCCCCCC)n1` [JC-01-083]: the MIC in the assay on S. aureus ATCC 25923, in the assay with MRSA ATCC 33591, with MRSA ATCC BAA-44 and against P. aeruginosa ATCC 27853 was above 128 µg/mL in each case. Besides, the “IC50 of single biological replicates (Figure S2)” value in assay [2] (24 hours, one value per biological replicate, listed as JC-01-83) was 32 µg/ml and 43.5 µg/ml and 27.7 µg/ml and 20.8 µg/ml. Besides, the IC50 in assay [2] (setting [4]) was 78.2 µM and 31 µg/mL. Besides, the “antimicrobial activity against S. aureus/MRSA strains” value in the assay on S. aureus/MRSA strains (in words) is “completely inactive”.
